Key:
[1] = system: Renal Cancer subpanel; assay type: cell-based, human
[2] = system: HCT-116; assay type: cell-based; settings: Homo sapiens; HCT-116, five-dose test
[3] = system: M14; assay type: cell-based; settings: M14, five-dose test
[4] = system: SNB-19; assay type: cell-based; settings: SNB-19, five-dose test
[5] = system: NCI-H226; assay type: cell-based; settings: Homo sapiens, NCI-H226, five-dose test
[6] = system: NCI-H23; assay type: cell-based; settings: NCI-H23, five-dose test
[7] = system: OVCAR-5; assay type: cell-based; settings: Homo sapiens; OVCAR-5, five-dose test; read-out: LC50 (the source's name)
[8] = system: SR; assay type: cell-based; settings: five-dose test
[9] = system: A498; assay type: cell-based, human; settings: A498, five-dose test
[10] = system: Ovarian Cancer subpanel; assay type: cell-based, human
[11] = system: LOX IMVI; assay type: cell-based; settings: five-dose test
[12] = system: CNS Cancer subpanel; assay type: cell-based, human
[13] = system: OVCAR-8; assay type: cell-based; settings: OVCAR-8, five-dose test
[14] = system: HOP-92; assay type: cell-based, human; settings: HOP-92, five-dose test
[15] = system: OVCAR-3; assay type: cell-based; settings: Homo sapiens; OVCAR-3, five-dose test
[16] = system: K-562; assay type: cell-based; settings: K-562, five-dose test
[17] = system: CCRF-CEM; assay type: cell-based; settings: five-dose test
[18] = system: SK-MEL-5; assay type: cell-based; settings: Homo sapiens; SK-MEL-5, five-dose test
[19] = system: SF-268; assay type: cell-based; settings: SF-268, five-dose test
[20] = system: Breast Cancer subpanel; assay type: cell-based, human
[21] = system: MCF7; assay type: cell-based; settings: MCF7, five-dose test
[22] = system: ACHN; assay type: cell-based; settings: Homo sapiens, five-dose test
[23] = system: Colon Cancer subpanel; assay type: cell-based, human
[24] = system: MALME-3M; assay type: cell-based, human; settings: five-dose test
[25] = system: MDA-MB-231/ATCC; assay type: cell-based; settings: five-dose test
[26] = system: SF-539; assay type: cell-based, human; settings: SF-539, five-dose test
[27] = system: SF-295; assay type: cell-based, human; settings: SF-295, five-dose test
[28] = system: SK-OV-3; assay type: cell-based, human; settings: SK-OV-3, five-dose test
[29] = system: DU-145; assay type: cell-based; settings: Homo sapiens; DU-145, five-dose test
[30] = system: TK-10; assay type: cell-based, human; settings: TK-10, five-dose test
[31] = system: SK-MEL-2; assay type: cell-based; settings: SK-MEL-2, five-dose test
[32] = system: MDA-MB-468
[33] = system: KM12; assay type: cell-based; settings: KM12, five-dose test
[34] = system: SN12C; assay type: cell-based; settings: five-dose test
[35] = Homo sapiens, read-out: LC50 (the source's name)

What does the source list for `COc1ccc2c(c1)/C(=N/NC(=O)c1oc3ccccc3c1C)C(=O)N2` [Compound 5d]?
GI50 ([1]; Homo sapiens, Renal Cancer subpanel, read-out: MG-MID (GI50 average of the subpanel)): 1.98 µM; Selectivity index ([1]; full panel MID / subpanel MID, Renal Cancer): 1.26; GI50 [2]: 1.92 µM; CC50 [3, 35]: > 100 µM; TGI [3]: >100 µM; GI50 ([4]; Homo sapiens): 3.45 µM; CC50 [4, 35]: > 100 µM; TGI [4]: 16.2 µM; GI50 [5]: 2.19 µM; CC50 ([5]; read-out: LC50 (the source's name)): > 100 µM; GI50 ([6]; Homo sapiens): 1.86 µM; LC50 ([6]; Homo sapiens): > 100 µM; TGI [6]: 4.43 µM; CC50 [7]: > 100 µM; CC50 [8, 35]: > 100 µM; TGI [8]: >100 µM; TGI [9]: 4.04 µM; GI50 ([9]; Homo sapiens): 1.63 µM; GI50 ([10]; Homo sapiens, Ovarian Cancer subpanel, read-out: MG-MID (GI50 average of the subpanel)): 2.29 µM; Selectivity index ([10]; full panel MID / subpanel MID, Ovarian Cancer): 1.09; GI50 ([11]; Homo sapiens): 3.16 µM; CC50 [11, 35]: > 100 µM; TGI [11]: >100 µM; GI50 ([12]; Homo sapiens, CNS Cancer subpanel, read-out: MG-MID (GI50 average of the subpanel)): 2.6 µM; Selectivity index ([12]; full panel MID / subpanel MID, CNS Cancer): 0.96; GI50 ([13]; Homo sapiens): 3.22 µM; LC50 ([13]; Homo sapiens): > 100 µM; TGI [13]: >100 µM; TGI [14]: 3.98 µM; GI50 ([14]; Homo sapiens): 1.84 µM; GI50 [15]: 1.84 µM; CC50 ([16]; Homo sapiens, K562, read-out: LC50 (the source's name)): > 100 µM; TGI [16]: >100 µM; CC50 [17, 35]: > 100 µM; TGI [17]: >100 µM; LC50 (50% lethal concentration) [18]: > 100 µM; GI50 ([19]; Homo sapiens): 5.18 µM; CC50 [19, 35]: > 100 µM; TGI [19]: 56.8 µM; GI50 ([20]; Homo sapiens, Breast Cancer subpanel, read-out: MG-MID (GI50 average of the subpanel)): 2.83 µM; Selectivity index ([20]; full panel MID / subpanel MID, Breast Cancer): 0.88; CC50 [21, 35]: > 100 µM; TGI [21]: >100 µM; GI50 [22]: 1.77 µM; GI50 ([23]; Homo sapiens, Colon Cancer subpanel, read-out: MG-MID (GI50 average of the subpanel)): 1.92 µM; Selectivity index ([23]; full panel MID / subpanel MID, Colon Cancer): 1.30; GI50 ([24]; Homo sapiens): 1.81 µM; TGI [24]: 3.79 µM; GI50 ([25]; Homo sapiens): 2.07 µM; CC50 [25, 35]: > 100 µM; TGI [25]: 5.10 µM; GI50 ([26]; Homo sapiens): 1.66 µM; TGI [26]: 3.16 µM; GI50 ([27]; Homo sapiens): 2.03 µM; TGI [27]: 4.13 µM; GI50 ([28]; Homo sapiens): 1.82 µM; TGI [28]: 3.83 µM; LC50 [29]: > 100 µM; GI50 ([30]; Homo sapiens): 2.32 µM; TGI [30]: 4.02 µM; GI50 ([31]; Homo sapiens): 2.56 µM; LC50 ([31]; Homo sapiens): 54.7 µM; TGI [31]: 6.62 µM; GI50 ([32]; Homo sapiens, MDA-MB-468): 2.6 µM; CC50 ([32]; Homo sapiens, MDA-MB-468, read-out: LC50): > 100 µM; TGI ([32]; MDA-MB-468, five-dose test): 6.52 µM; CC50 [33, 35]: > 100 µM; TGI [33]: >100 µM; GI50 ([34]; Homo sapiens): 2.82 µM; CC50 [34, 35]: > 100 µM; TGI [34]: >100 µM

— publication PMC8245078, “Development of novel benzofuran-isatin conjugates as potential antiproliferative agents with apoptosis inducing mechanism in Colon cancer” (Journal of Enzyme Inhibition and Medicinal Chemistry, 2021)
